Laboratory results taken from patent US5192807A, “Siderophores as antiparasitic agents” (priority 1987, dated 1993).
“Also recorded” adds a separate entry of the source.

Tests used:
[1] = system: schizonts of Plasmodium falciparum; assay: Kinetics of inhibition of 35S-methionine incorporation in schizonts; assay type: cell-based; details: for incorporation of 35S-methionine in the proteins of schizonts: FIG. 7, aerobactin 50 μg/ml, desferioxamine 500 μg/ml
Protocol: Time in minutes is plotted along the X axis and the percentage of inhibited schizonts is plotted up the Y axis.
The schizonts of Plasmodium falciparum were concentrated from a culture, they were washed and cultured at 37° C. for one hour. Solutions of hydroxamate (-- -- 50 μg/ml aerobactin and --.smallcircle.-- 500 μg/ml of desferioxamine) were added to the schizonts. Incubation at 37° C. continued and samples were taken at various different times. The hydroxamate was removed by washing the cells, and the cells were again cultured in the presence of 250 μCi/ml ^35 S-methionine for one hour.
The cultures were collected and the degree to which ^35 S-methionine had been incorporated was measured.

[2] = system: red blood cells infected with Plasmodium falciparum; assay: Penetration and concentration in parasitized red blood cells; assay type: cell-based, human; details: for penetration into parasitized red blood cells: schizont stage, aerobactin 7 μg/ml, desferioxamine 50 μg/ml
Excerpt: (§1) This test studies the incorporation of […] in normal red blood cells and in red blood cells infected with Plasmodium falciparum.
(§2) Tritium-marked aerobactin (0.2 mCi/mmol to 0.3 mCi/mmol) was purified as described above (FIG. 3) from a supernatant of strains of K5 1101 Klebsiella pneumoniae culture cultivated in an RPMI* medium containing 100 μCi/ml of tritium-marked lysine.
Desferioxamine marked with iodine 125 (50 mCi/mmol) was obtained by the iodine-producing technique.
(§3) The tritium-containing aerobactin (7 μg/ml) and the ^125 I containing desferioxamine (50 μg/ml) were introduced into synchronized cultures of Plasmodium falciparum (schizont stage, 20% parasitemia, hematocrit: 5%) and in a suspension of red blood cells (5% hematocrit). The cultures were incubated at 37° C. and 50 μl samples were taken at different times.
(§4) For each sample, the following were measured:
(§5) 1. The cpm in the culture supernatant;
2. The cpm in the supernatant of red blood cells lysis (the red blood cells were lysed in 40 vol. of RPMI diluted ten times and the free parasites were precipitated using a centrifuge rotating at 5,000 rpm for 5 min and were washed in RPMI); and
3. The cpm associated with free parasites.
The parasites are subsequently lysed in order to prepare soluble and membrane fractions as described previously (Braun-Breton et al, Molecular Biochem. Parasitol., 1986, 20, pp. 33-43).

Plasmodium falciparum [3] = assay: Inhibition of Plasmodium falciparum growth (35S-methionine incorporation) and effect of adding iron; assay type: cell-based; details: for effect of FeCl3 on inhibition: 2.10^-3 M FeCl3 added immediately after the hydroxamate; for antiplasmodial activity / parasite growth inhibition: in vitro, no iron added; for effect of adding iron on the antiplasmodial action: iron added to the parasite culture
Protocol: FIG. 3b: the pool of hydroxamate (10 ml to 15 ml) collected by the ion exchange chromatography was placed in a Sephadex G50 column (25×2 cm) and eluted with 100 mM of phosphate buffer (pH 7.0), at a flow rate of 30 ml/h. Fractions (2 ml to 3 ml) were collected and the hydroxamate measured (A526 nm absorbance -- --), and the following were also measured: inhibition of Plasmodium falciparum growth (--.smallcircle.--) and A220 nm absorbance (--Δ--).
0.2 μm of the filtered fractions were placed in a synchronized culture of Plasmodium falciparum at a final concentration of 2.5%, as described in Table I. 100 μCi/ml of methionine marked with sulfur 35 (Amersham) were added on day 1 (rings). The parasite culture was collected on day 2 (schizonts) and the incorporation of ^35 S-methionine was measured in 10% TCA.

Plasmodium chaubaudi = assay: Parasite multiplication and survival of mice infected with Plasmodium chaubaudi; assay type: in vivo
mice = assay: Toxicity in mice; assay type: in vivo; details: injection
L fibroblasts = assay: 35S-methionine incorporation in L fibroblasts; assay type: cell-based; details: 5 hours
P. falciparum = assay: Parasite multiplication and survival of mice infected with P. falciparum; assay type: in vivo; details: FIG. 5
bacteria = details: Williams et al 1986; cited from earlier work
Plasmodium falciparum [4] = assay: Quantitative in vitro growth inhibition of Plasmodium falciparum; assay type: cell-based; details: 2.5 μg/ml (about 10^-5 M)
monkeys = details: monkey, in vivo
fibroblasts = assay: Toxicity on a culture of fibroblasts; assay type: cell-based; details: purified
[5] = Williams et al 1986; cited from earlier work
normal red blood cells = assay: Concentration in healthy red blood cells; assay type: cell-based, human; details: tritium-marked, 7 μg/ml, 37° C.
Protocol: as §1, §2, §3, §4, §5
2. The cpm in the supernatant of red blood cells lysis (the red blood cells were lysed in 40 vol. of RPMI diluted ten times and the free parasites were precipitated using a centrifuge rotating at 5,000 rpm for 5 min and were washed in RPMI); and […]

[6] = cited from earlier work

**Q.** Which “incorporation of 35S-methionine in the proteins of schizonts” value [1] does the source give for CC(=O)N(O)CCCCCNC(=O)CCC(=O)N(O)CCCCCNC(=O)CCC(=O)N(O)CCCCCN [Desferioxamine] here?
**A.** no action on the incorporation of methionine

**Q.** What about the “penetration into parasitized red blood cells” value ([2]; 37° C.) of the same compound?
**A.** does not penetrate into parasitized red blood cells

**Q.** And the “effect of FeCl3 on inhibition” value (Plasmodium falciparum [3])?
**A.** completely reverses the inhibition

**Q.** What about the “antiplasmodial activity / parasite growth inhibition” value (Plasmodium falciparum [3]) of the same compound?
**A.** inhibits parasite growth

**Q.** What about the “effect of adding iron on the antiplasmodial action” value (Plasmodium falciparum [3]) of the same compound?
**A.** totally reversed

**Q.** For Cl.NCCCC[C@H](N)C(=O)NO [L-Lysine hydroxamate hydrochloride], which “antiplasmodial activity / parasite growth inhibition” value (Plasmodium falciparum [3]) is on record?
**A.** does not exhibit antiplasmodial activity

**Q.** What does the source list for CC(=O)N(O)CCCCC(NC(=O)CC(O)(CC(=O)NC(CCCCN(O)C(C)=O)C(=O)O)C(=O)O)C(=O)O (stereo not drawn) [aerobactin]?
**A.** incorporation of 35S-methionine in the proteins of schizonts [1]: quickly suppresses the incorporation; inhibition at 50 µg/mL ([1]; Plasmodium falciparum, 2 h, 50 μg/ml, within two hours, 37° C., read-out: schizonts with inhibited incorporation of methionine): 90%; survival of mice (Plasmodium chaubaudi; 7.5 μg): do not survive; parasite multiplication and survival of mice (Plasmodium chaubaudi; purified, intravenous, 15 μg/mouse): causes parasite multiplication to be slowed down, allowing the mice to survive; toxicity for mice (mice): not toxic for mice; also recorded: no toxic effect has been observed; inhibition of methionine incorporation in L fibroblasts (L fibroblasts): Such activity was not found; location of intraparasitic radioactivity ([2]; lysed parasites, soluble and membrane fractions): recovered in the soluble fraction of the parasites; penetration into parasitized red blood cells ([2]; 37° C.): penetrates quickly into parasitized red blood cells; detection in the cytoplasm of the red blood cells ([2]; supernatant of red blood cell lysis): not detected; concentration in the parasitized cell ([2]; tritium-marked, 7 μg/ml, 37° C.): at least 200 times; parasite multiplication and survival of mice (P. falciparum) (P. falciparum): The same effect has been observed; concentration stimulating bacterial growth relative to enterochelin (bacteria): 500 times smaller; inhibition of growth of Plasmodium falciparum (Plasmodium falciparum [4]): 100%; toxic effect in monkeys (monkeys): no toxic effect has been observed; toxic effect on fibroblasts in culture (fibroblasts): no toxic effect on the cells; effect of FeCl3 on inhibition (Plasmodium falciparum [3]): little effect on inhibition; plasmocidin activity after purification (Plasmodium falciparum [3]; Dowex-1 and Sephadex G50 purified, FIG. 3): plasmocidin activity subsists; effect of adding iron on the antiplasmodial action (Plasmodium falciparum [3]): does not reverse the plasmocidin action; affinity for ferric derivatives relative to enterochelin [5]: lower affinity for ferric derivatives than enterochelin; concentration in healthy red blood cells (normal red blood cells): not concentrated in healthy red blood cells

**Q.** For CCN(CC)CCCC(C)Nc1ccnc2cc(Cl)ccc12 (stereo not drawn) [chloroquine], which “toxicity (prior art)” value [6] is on record?
**A.** do not present significant toxicity
